# Measured values reported in US12318370B2, “Processes for preparing solid state forms” (Varda Space Industries, Inc., priority 2022, dated 2025).
# Assays:
# Type in all cases: physicochemical
# [1] = Temperature and humidity stress test, 40° C./75% RH, XRPD; details: for Change of solid form under stress, in words: 40° C. and 75% RH, XRPD at 30, 60 and 96 days; for Solid form after stress test / Time at which conversion to Form I was detected: 40° C./75% RH; for Solid form after stress test: XRPD
# Description: XRPD was measured at 30, 60, and 96 days (FIG. 15).
# [2] = Manual grinding, XRPD; details: mortar and pestle, five cycles of 2 minutes (10 minutes total)
# [3] = Short-term thermal stability, Raman microscopy; details: sequentially 15 minutes at 50° C., 70° C. and 90° C., Raman after each
# Description: Short-term thermal stability experiments were conducted by holding the material from example 1f sequentially for 15 minutes at 50° C., 15 minutes at 70° C., and 15 minutes at 90° C. The sample was analyzed by Raman microscopy after each temperature exposure. […] FIG. 10 compares the short-term thermal stability results to the reference spectra from FIG. 9.
# [4] = Longer-term stability at ambient conditions, Raman; details: 5 weeks and up to 23 weeks
# Description: Additionally, a longer-term stability study was performed.
# [5] = Dynamic vapor sorption (DVS); details: 5% to 95% RH
# Description: No hysteresis was observed. DVS isotherms were characterized using a VTI SGA-100 Vapor Sorption Analyzer. The sample was not dried prior to analysis. Sorption and desorption isotherms were collected over a range from 5% to 95% RH at 10% RH increments under a dry air purge. The equilibrium criterion used for analysis was less than 0.0100%^0/weight change in five minutes with a maximum equilibration time of three hours and a 2-minute data logging interval. Data were not corrected for the initial moisture content of the sample.
# [6] = Compression at 700 lbs, XRPD; details: XRPD before and after, listed as ritonavir Form III
"Change of solid form under stress, in words [1]",Solid form after stress test ([1]; 30 days),Solid form after stress test ([1]; 60 days),Solid form after stress test ([1]; 96 days),Time at which conversion to Form I was detected ([1]; listed as amorphous ritonavir) [days],Solid form after manual grinding ([2]; listed as Amorphous material),Solid form after manual grinding [2],Solid form after short-term thermal exposure [3],Solid form after storage at ambient conditions [4],"Solid form after stress test ([1]; 96 days, listed as ritonavir Form III)",Time at which conversion to Form I was detected ([1]; listed as Form III ritonavir) [days],Time at which conversion to Form I was detected ([1]; listed as ritonavir Form III) [days],Solid form after manual grinding ([2]; listed as ritonavir Form III),Hygroscopicity [5],Change of solid form after compression [6],Structure (SMILES)
No change,Form I,Form I,Form I,≤ 30,remained unchanged,,,,,,,,,,"CC(C)c1nc(CN(C)C(=O)N[C@H](C(=O)N[C@@H](Cc2ccccc2)C[C@H](O)[C@H](Cc2ccccc2)NC(=O)OCc2cncs2)C(C)C)cs1 (single isomer, unassigned) [Amorphous, 10-hydroxy-2-methyl-5-(1-methylethyl)-1-[2-(1-methylethyl)-4-thiazolyl]-3,6-dioxo-8,11-bis(phenylmethyl)-2,4,7,12-tetraazatridecan-13-oic acid, 5-thiazolylmethyl ester, [SS-(5R*,8R*,10R*,1R*)]]"
No change,Form I,Form I,Form I,,,Mixture of amorphous and Form I,,,,,,,,,"CC(C)c1nc(CN(C)C(=O)N[C@H](C(=O)N[C@@H](Cc2ccccc2)C[C@H](O)[C@H](Cc2ccccc2)NC(=O)OCc2cncs2)C(C)C)cs1 (single isomer, unassigned) [Form I, 10-hydroxy-2-methyl-5-(1-methylethyl)-1-[2-(1-methylethyl)-4-thiazolyl]-3,6-dioxo-8,11-bis(phenylmethyl)-2,4,7,12-tetraazatridecan-13-oic acid, 5-thiazolylmethyl ester, [SS-(5R*,8R*,10R*,1R*)]]"
,,,,,,mixture of amorphous and Form II,,,,,,,,,"CC(C)c1nc(CN(C)C(=O)N[C@H](C(=O)N[C@@H](Cc2ccccc2)C[C@H](O)[C@H](Cc2ccccc2)NC(=O)OCc2cncs2)C(C)C)cs1 (single isomer, unassigned) [Form II, 10-hydroxy-2-methyl-5-(1-methylethyl)-1-[2-(1-methylethyl)-4-thiazolyl]-3,6-dioxo-8,11-bis(phenylmethyl)-2,4,7,12-tetraazatridecan-13-oic acid, 5-thiazolylmethyl ester, [SS-(5R*,8R*,10R*,1R*)]]"
,Form III,Form III + Form I,Form III + Form I,,,,remained as Form III ritonavir,remained unchanged,presence of Form I peaks,60,60,amorphous with traces of Form III,not hygroscopic,no change,"CC(C)c1nc(CN(C)C(=O)N[C@H](C(=O)N[C@@H](Cc2ccccc2)C[C@H](O)[C@H](Cc2ccccc2)NC(=O)OCc2cncs2)C(C)C)cs1 (single isomer, unassigned) [Form III, 10-hydroxy-2-methyl-5-(1-methylethyl)-1-[2-(1-methylethyl)-4-thiazolyl]-3,6-dioxo-8,11-bis(phenylmethyl)-2,4,7,12-tetraazatridecan-13-oic acid, 5-thiazolylmethyl ester, [SS-(5R*,8R*,10R*,1R*)]]"
